# Test results taken from patent US20110135671A1, “PURINE DERIVATIVES FOR USE IN THE TREATMENT OF ALLERGIC, INFLAMMATORY AND INFECTIOUS DISEASES” (GLAXOSMITHKLINE LLC, priority 2008, published 2011).
# Tested on: Interferon-α
# Test: Induction of Interferon-α using cryopreserved human PBMCs
# Type: cell-based
# Conditions: PBMC, 24 h, normalised to 1 uM resiquimod, read-out: mean pEC50 for induction of Interferon-α (converted)
# Description: Assay for the Induction of Interferon-α using Cryopreserved Human Peripheral Blood Mononuclear Cells (PBMCs)
# Compounds were dissolved in DMSO. Serial 2-fold dilutions with DMSO were prepared and 0.25 μl dispensed into 384-well clear Greiner polypropylene plates.
# Blood samples of up to 200 ml were obtained from healthy human donors. Whole blood in 25 ml volumes was overlaid onto 15 ml Ficoll gradients in Leucosep tubes, and centrifuged at 1000 g for 20 min. Cells in the band at the plasma/histopaque interface were carefully removed and washed twice with PBS (centrifuged at 400 g for 5 min to harvest). The final pellet was resuspended in freezing medium (90% Heat-inactivated serum, 10% DMSO) to a cell concentration of 4×10^7 cells/ml. The resuspended cells were then cryopreserved (frozen) using a rate controlled freezer, and stored at −140° C. for up to 4 months.
# Incubation and Assay for Interferon-α
# Immediately prior to assay, vials of cryopreserved (frozen) PBMCs were thawed rapidly in a water bath at 37° C. A 1:10 dilution of the cells in trypan blue was prepared and counted. The PBMCs were then diluted in growth media [RPMI 1640 containing 10% fetal calf serum (invitrogen), Penicillin+Streptavidin (Gibco cat. # 25030-024, 1:50), L-Glutamine 2 mM, and 1000 units/ml recombinant human IFN-gamma (Preprotech catalogue #300-02)] to a density of 1×10^6 cells/ml, and 50 ul/well dispensed to 384-well clear Greiner polypropylene plates containing 0.25 μl DMSO or test compound in 0.25 μl DMSO. […] Plates were incubated for 24 h at 37° C. in 5% CO2.
# A multi-isoform immunoassay was used to quantify IFN-α in PBMC supernatants. Rabbit polyclonal antibody against human IFN-α (catalogue number 31101, Stratech Scientific) was diluted 1:10000 in assay buffer (RPMI 1640 containing 10% fetal calf serum, Invitrogen) and 20 μl was added to each well of an MSD (Meso-Scale Discovery) single small-spot 384-well GAR (goat anti-rabbit antibody coated) plate. The plate was incubated for 1 h at room temperature with vigorous shaking. Following three washes with PBS, 20 μl of cell supernatant were added to each well of the plate. The plate was then incubated for 1 h at room temperature with vigorous shaking. A pair of monoclonal antibodies to IFN-α (catalogue numbers 21100 and 21112, Stratech Scientific) were labelled with sulfo-TAG (MSD), diluted 1:1000 in assay buffer and 20 μl added to each well of the plate. The plate was further incubated for 1 h at room temperature with vigorous shaking. Following three washes with PBS, 30 μl of ×2 T buffer (MSD) was added to each well and the plate was read on an MSD Sector 6000 plate reader.
# Data were normalised to internal plate controls of 1 uM resiquimod (n=16) and DMSO (n=16). pEC50 values were derived by 4-parameter curve fit with IRLS in ActivityBase, from 11-point, two-fold serial dilution of test compounds.
row,Compound,EC50 [µM]
1,"CCCCNc1nc(N)c2[nH]c(=O)n(CCCN3CCN(C(C)(C)C)CC3)c2n1 [Example 22, 6-Amino-2-(butylamino)-9-{3-[4-(1,1-dimethylethyl)-1-piperazinyl]propyl}-7,9-dihydro-8H-purin-8-one]",< 3.16
2,"CCCCNc1nc(N)c2[nH]c(=O)n(CCCCN3CCN(C4CCCCC4)CC3)c2n1 [Example 44, 6-Amino-2-(butylamino)-9-[4-(4-cyclohexyl-1-piperazinyl)butyl]-7,9-dihydro-8H-purin-8-one]",< 3.16
3,"CCC[C@H](C)Oc1nc(N)c2[nH]c(=O)n(CCCCCN3CCN(C)CC3)c2n1 [Example 50, 6-Amino-2-{[(1S)-1-methylbutyl]oxy}-9-[5-(4-methyl-1-piperazinyl)pentyl]-7,9-dihydro-8H-purin-8-one]",< 3.16
4,"CCCCNc1nc(N)c2[nH]c(=O)n(CCCN3CCN(CC)CC3)c2n1 [Example 17, 6-Amino-2-(butylamino)-9-[3-(4-ethyl-1-piperazinyl)propyl]-7,9-dihydro-8H-purin-8-one]",< 3.16
5,"CCCCOc1nc(N)c2[nH]c(=O)n(CCCCN3CCN(C4CCCCC4)CC3)c2n1 [Example 35, 6-Amino-2-(butyloxy)-9-[4-(4-cyclohexyl-1-piperazinyl)butyl]-7,9-dihydro-8H-purin-8-one]",< 3.16
6,"CC(C)N1CCN(CCCCn2c(=O)[nH]c3c(N)nc(OC4CCCCC4)nc32)CC1 [Example 73, 6-Amino-2-(cyclohexyloxy)-9-{4-[4-(1-methylethyl)-1-piperazinyl]butyl}-7,9-dihydro-8H-purin-8-one]",< 3.16
7,"CCCCOc1nc(N)c2[nH]c(=O)n(CCCCCN3CCN(C4CCCCC4)CC3)c2n1 [Example 64, 6-Amino-2-(butyloxy)-9-[5-(4-cyclohexyl-1-piperazinyl)pentyl]-7,9-dihydro-8H-purin-8-one]",< 3.16
8,"CCCCOc1nc(N)c2[nH]c(=O)n(CCCCCN3CCN(C(C)(C)C)CC3)c2n1 [Example 61, 6-Amino-2-(butyloxy)-9-{5-[4-(1,1-dimethylethyl)-1-piperazinyl]pentyl}-7,9-dihydro-8H-purin-8-one]",< 3.16
9,"CCCCOc1nc(N)c2[nH]c(=O)n(CCCCCN3CCN(CCCC)CC3)c2n1 [Example 59, 6-Amino-2-(butyloxy)-9-[5-(4-butyl-1-piperazinyl)pentyl]-7,9-dihydro-8H-purin-8-one]",< 3.16
10,"CC(C)N1CCN(CCCCn2c(=O)[nH]c3c(N)nc(OC4CCC4)nc32)CC1 [Example 71, 6-Amino-2-(cyclobutyloxy)-9-{4-[4-(1-methylethyl)-1-piperazinyl]butyl}-7,9-dihydro-8H-purin-8-one]",< 3.16
11,"CCCCNc1nc(N)c2[nH]c(=O)n(CCCCN3CCN(C(C)C)CC3)c2n1 [Example 38, 6-Amino-2-(butylamino)-9-{4-[4-(1-methylethyl)-1-piperazinyl]butyl}-7,9-dihydro-8H-purin-8-one]",< 3.16
12,"CCCCNc1nc(N)c2[nH]c(=O)n(CCCN3CCN(C(C)C)CC3)c2n1 [Example 19, 6-Amino-2-(butylamino)-9-{3-[4-(1-methylethyl)-1-piperazinyl]propyl}-7,9-dihydro-8H-purin-8-one]",< 3.16
13,"CCCCNc1nc(N)c2[nH]c(=O)n(CCCN3CCN(C4CCCCC4)CC3)c2n1 [Example 25, 6-Amino-2-(butylamino)-9-[3-(4-cyclohexyl-1-piperazinyl)propyl]-7,9-dihydro-8H-purin-8-one]",< 3.16
14,"CCCCOc1nc(N)c2[nH]c(=O)n(CCCCN3CCN(CC(C)C)CC3)c2n1 [Example 31, 6-Amino-2-(butyloxy)-9-{4-[4-(2-methylpropyl)-1-piperazinyl]butyl}-7,9-dihydro-8H-purin-8-one]",< 3.16
15,"CCCCOc1nc(N)c2[nH]c(=O)n(CCCCCCN3CCN(CC)CC3)c2n1 [Example 56, 6-Amino-2-(butyloxy)-9-[6-(4-ethyl-1-piperazinyl)hexyl]-7,9-dihydro-8H-purin-8-one]",< 3.16
16,"CCCCOc1nc(N)c2[nH]c(=O)n(CCCN3CCN(C4CCCCC4)CC3)c2n1 [Example 15, 6-Amino-2-(butyloxy)-9-[3-(4-cyclohexyl-1-piperazinyl)propyl]-7,9-dihydro-8H-purin-8-one]",< 3.16
17,"CCCCOc1nc(N)c2[nH]c(=O)n(CCCN3CCN(C(C)(C)C)CC3)c2n1 [Example 12, 6-Amino-2-(butyloxy)-9-{3-[4-(1,1-dimethylethyl)-1-piperazinyl]propyl}-7,9-dihydro-8H-purin-8-one]",< 3.16
18,"CCCCNc1nc(N)c2[nH]c(=O)n(CCCCN3CCN(CC(C)C)CC3)c2n1 [Example 40, 6-Amino-2-(butylamino)-9-{4-[4-(2-methylpropyl)-1-piperazinyl]butyl}-7,9-dihydro-8H-purin-8-one]",< 3.16
19,"CCCCOc1nc(N)c2[nH]c(=O)n(CCCN3CCN(C4CCCC4)CC3)c2n1 [Example 14, 6-Amino-2-(butyloxy)-9-[3-(4-cyclopentyl-1-piperazinyl)propyl]-7,9-dihydro-8H-purin-8-one]",< 3.16
20,"CCCCOc1nc(N)c2[nH]c(=O)n(CCCCCN3CCN(CC4CC4)CC3)c2n1 [Example 65, 6-Amino-2-(butyloxy)-9-{5-[4-(cyclopropylmethyl)-1-piperazinyl]pentyl}-7,9-dihydro-8H-purin-8-one]",< 3.16
21,"CCCCNc1nc(N)c2[nH]c(=O)n(CCN3CCN(C(C)C)CC3)c2n1 [Example 4, 6-Amino-2-(butylamino)-9-{2-[4-(1-methylethyl)-1-piperazinyl]ethyl}-7,9-dihydro-8H-purin-8-one]",< 3.16
22,"CCCCOc1nc(N)c2[nH]c(=O)n(CCCCCN3CCN(CC4CCCC4)CC3)c2n1 [Example 66, 6-Amino-2-(butyloxy)-9-{5-[4-(cyclopentylmethyl)-1-piperazinyl]pentyl}-7,9-dihydro-8H-purin-8-one]",< 3.16
23,"CCCCNc1nc(N)c2[nH]c(=O)n(CCCCN3CCN(C4CCCC4)CC3)c2n1 [Example 43, 6-Amino-2-(butylamino)-9-[4-(4-cyclopentyl-1-piperazinyl)butyl]-7,9-dihydro-8H-purin-8-one]",< 3.16
24,"CCCCOc1nc(N)c2[nH]c(=O)n(CCCCN3CCN(CCCC)CC3)c2n1 [Example 30, 6-Amino-2-(butyloxy)-9-[4-(4-butyl-1-piperazinyl)butyl]-7,9-dihydro-8H-purin-8-one]",< 3.16
25,"CCCCOc1nc(N)c2[nH]c(=O)n(CCCN3CCN(CC4CC4)CC3)c2n1 [Example 13, 6-Amino-2-(butyloxy)-9-{3-[4-(cyclopropylmethyl)-1-piperazinyl]propyl}-7,9-dihydro-8H-purin-8-one]",< 3.16
26,"CCCCOc1nc(N)c2[nH]c(=O)n(CCCN3CCN(C(C)C)CC3)c2n1 [Example 9, 6-Amino-2-(butyloxy)-9-{3-[4-(1-methylethyl)-1-piperazinyl]propyl}-7,9-dihydro-8H-purin-8-one]",< 3.16
27,"CCCCOc1nc(N)c2[nH]c(=O)n(CCCCN3CCN(CC4CC4)CC3)c2n1 [Example 33, 6-Amino-2-(butyloxy)-9-{4-[4-(cyclopropylmethyl)-1-piperazinyl]butyl}-7,9-dihydro-8H-purin-8-one]",< 3.16
28,"CCCCOc1nc(N)c2[nH]c(=O)n(CCCN3CCN(CC)CC3)c2n1 [Example 7, 6-Amino-2-(butyloxy)-9-[3-(4-ethyl-1-piperazinyl)propyl]-7,9-dihydro-8H-purin-8-one]",< 3.16
